{
  "source": "patent US7010431B2",
  "about": "“Method for effecting computer implemented decision-support in the selection of the drug therapy of patients having a viral disease” (F. Hoffman-LaRoche Ltd., priority 2000, dated 2006)",
  "origin": "cited, not measured here",
  "key": {"[1]": {"test_system": "HIV reverse transcriptase (RT) substitutions", "parameters": "key: 0 (low resistance); 3 (high resistance)"}, "[2]": {"test_system": "HIV protease (P) substitutions", "parameters": "key: 0 (low resistance); 3 (high resistance)"}, "[3]": {"conditions": "substitution 48 V, drug level 100"}},
  "note": "Where two headings read alike, the source gives them in different places.",
  "data": [
    {"smiles": "Nc1ccn([C@@H]2CS[C@H](CO)O2)c(=O)n1", "note": "[3TC]", "values": [
      {"measurement": "resistance @ level", "setting": "[1]; substitution 69SS + 215, drug level 100", "result": 2}
    ]},
    {"smiles": "Nc1nc(NC2CC2)c2ncn([C@H]3C=C[C@@H](CO)C3)c2n1", "note": "[ABC]", "values": [
      {"measurement": "resistance @ level", "setting": "[1]; substitution 184 + two of (41, 67, 70, 210, 215, 219), drug level 10000", "result": 2}
    ]},
    {"smiles": "CC(C)CN(C[C@@H](O)[C@H](Cc1ccccc1)NC(=O)O[C@H]1CCOC1)S(=O)(=O)c1ccc(N)cc1", "note": "[AMP]", "values": [
      {"measurement": "resistance @ level", "setting": "[2]; substitution 90M/I, drug level 10000", "result": 1}
    ]},
    {"smiles": "Cc1cn([C@H]2C=C[C@@H](CO)O2)c(=O)[nH]c1=O", "note": "[D4T]", "values": [
      {"measurement": "resistance @ level", "setting": "[1]; substitution three of (41, 67, 70, 210, 215, 219), drug level 100", "result": 1}
    ]},
    {"smiles": "CC(C)(C)NC(=O)[C@@H]1C[C@@H]2CCCC[C@@H]2CN1C[C@@H](O)[C@H](Cc1ccccc1)NC(=O)[C@H](CC(N)=O)NC(=O)c1ccc2ccccc2n1", "note": "[FTV]", "values": [
      {"measurement": "resistance @ level", "setting": "[2]; [3]", "result": 1}
    ]},
    {"smiles": "CC(C)(C)NC(=O)[C@@H]1CN(Cc2cccnc2)CCN1C[C@@H](O)C[C@@H](Cc1ccccc1)C(=O)N[C@H]1c2ccccc2C[C@H]1O", "note": "[IND]", "values": [
      {"measurement": "resistance @ level", "setting": "[2]; [3]", "result": 0},
      {"measurement": "resistance @ level", "setting": "[2]; substitution 82A/F/T/S, drug level 100", "result": 1}
    ]},
    {"smiles": "Cc1c(O)cccc1C(=O)N[C@@H](CSc1ccccc1)[C@H](O)CN1C[C@H]2CCCC[C@H]2C[C@H]1C(=O)NC(C)(C)C", "note": "[NFV]", "values": [
      {"measurement": "resistance @ level", "setting": "[2]; substitution 84 + 90 + 46, drug level 100", "result": 3}
    ]},
    {"smiles": "Cc1ccnc2c1NC(=O)c1cccnc1N2C1CC1", "note": "[NVP]", "values": [
      {"measurement": "resistance @ level", "setting": "[1]; substitution 236, drug level 100", "result": 0}
    ]},
    {"smiles": "Cc1cn([C@H]2C[C@H](N=[N+]=[N-])[C@@H](CO)O2)c(=O)[nH]c1=O", "note": "[ZDV]", "values": [
      {"measurement": "resistance @ level", "setting": "[1]; substitution 215Y/F + 41, drug level 100", "result": 3}
    ]}
  ]
}
